The nature of one data set: PAMPA‐BBB assay. The class given is in vitro ADME. The following applies: pig; PAMPA‐BBB, PBS:EtOH (70 : 30); read-out: Permeability (Pe) experimental value.
In the next data set the target is T1, G9a (Homo sapiens, UniProt Q96KQ7).
T1 construct: purchased BPS Bioscience 52051
T1 sequence (Q96KQ7 1-1210): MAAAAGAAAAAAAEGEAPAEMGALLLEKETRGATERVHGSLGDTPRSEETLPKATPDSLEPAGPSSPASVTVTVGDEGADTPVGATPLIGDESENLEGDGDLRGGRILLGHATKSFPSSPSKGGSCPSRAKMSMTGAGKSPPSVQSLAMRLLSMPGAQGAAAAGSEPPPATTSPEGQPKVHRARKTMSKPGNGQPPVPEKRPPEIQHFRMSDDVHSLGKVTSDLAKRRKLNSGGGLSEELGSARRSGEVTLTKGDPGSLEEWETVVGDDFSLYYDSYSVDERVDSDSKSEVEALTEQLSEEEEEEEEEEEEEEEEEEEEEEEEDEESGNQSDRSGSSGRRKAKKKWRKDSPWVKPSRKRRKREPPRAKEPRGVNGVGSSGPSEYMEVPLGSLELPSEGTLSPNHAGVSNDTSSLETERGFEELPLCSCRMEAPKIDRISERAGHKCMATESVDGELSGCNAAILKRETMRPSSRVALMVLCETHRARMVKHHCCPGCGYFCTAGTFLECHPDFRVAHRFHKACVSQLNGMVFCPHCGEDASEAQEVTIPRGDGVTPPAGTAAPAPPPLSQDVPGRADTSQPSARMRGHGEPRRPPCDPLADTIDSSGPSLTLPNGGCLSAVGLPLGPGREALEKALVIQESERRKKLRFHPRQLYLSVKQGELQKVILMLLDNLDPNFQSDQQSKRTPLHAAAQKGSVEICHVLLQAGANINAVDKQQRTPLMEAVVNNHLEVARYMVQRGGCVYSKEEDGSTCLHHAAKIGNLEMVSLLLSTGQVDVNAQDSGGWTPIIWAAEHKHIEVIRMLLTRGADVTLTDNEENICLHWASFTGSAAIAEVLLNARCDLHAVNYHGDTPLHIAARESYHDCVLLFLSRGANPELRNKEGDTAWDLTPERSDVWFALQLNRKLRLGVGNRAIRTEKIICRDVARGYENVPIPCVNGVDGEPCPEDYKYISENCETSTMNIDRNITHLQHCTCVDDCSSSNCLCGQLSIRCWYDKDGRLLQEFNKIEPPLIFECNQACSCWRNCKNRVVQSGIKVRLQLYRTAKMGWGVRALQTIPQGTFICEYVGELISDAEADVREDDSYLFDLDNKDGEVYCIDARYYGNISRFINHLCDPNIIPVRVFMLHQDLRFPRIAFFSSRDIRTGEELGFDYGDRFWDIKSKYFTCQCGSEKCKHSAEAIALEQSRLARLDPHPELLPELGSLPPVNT
Briefly: G9a Homogeneous Assay Kit (AlphaLISA) G9a inhibition. Type of data set: biochemical.

Each structure is given as a SMILES string.

Usually remaining activity stands for the signal under treatment as a percentage of the control signal. The term IC50 denotes the concentration that gives 50% inhibition.

Method for PAMPA‐BBB assay: To evaluate the brain penetration of the different compounds, a parallel artificial membrane permeation assay for BBB was used, following the method described by Di et al..[33] The in vitro Pe of fourteen commercial drugs through lipid extract of porcine brain membrane together with the test compounds were determined. Commercial drugs and assayed compounds were tested using a mixture of PBS:EtOH (70 : 30).

As for `CC(=O)[C@H]1CC[C@H]2[C@@H]3CCC4=CC(=O)CC[C@]4(C)[C@H]3CC[C@]12C` [Progesterone, reference compound], the Papp in the data set “PAMPA‐BBB assay” came to 14.7 ± 0.3 ×10⁻⁶ cm/s.

Take `CN1C(C(=O)Nc2ccccn2)=C(O)c2ccccc2S1(=O)=O` [Piroxicam, reference compound]: the Papp in the data set “PAMPA‐BBB assay” came out at 2 ± 0.08 ×10⁻⁶ cm/s.

Take `Fc1ccccc1CN1CCC(CN(Cc2ccccn2)CC2CCCO2)CC1` (stereo not drawn) [Compound D]: at G9a (first data set of Table S2), the remaining activity at 0.0001 µM is 33%, the remaining activity at 0.001 µM worked out at 29.3%, the remaining activity at 0.01 µM came out at 23% and the remaining activity at 0.1 µM turned out to be 15.8%. Further, on G9a (first data set of Table S2), the remaining activity at 1 µM worked out at 11.5%, the remaining activity at 10 µM was 8.3% and the remaining activity at 50 µM is 9.9%. Moreover, at G9a (second data set of Table S2), the remaining activity at 0.0001 µM came to 33.8%, the remaining activity at 0.001 µM came out at 28.4%, the remaining activity at 0.01 µM was found to be 21.5% and the remaining activity at 0.1 µM was found to be 15.9%. On G9a (second data set of Table S2), the remaining activity at 1 µM came out at 14.2%, the remaining activity at 10 µM was 10.3% and the remaining activity at 50 µM stood at 12.1%. On G9a (third data set of Table S2), the remaining activity at 0.0001 µM is 33.4%, the remaining activity at 0.001 µM was 28.8%, the remaining activity at 0.01 µM amounted to 22.2% and the remaining activity at 0.1 µM came to 15.9%. Further, on G9a (third data set of Table S2), the remaining activity at 1 µM came to 12.8%, the remaining activity at 10 µM was found to be 9.3% and the remaining activity at 50 µM was determined as 11%. Besides, at G9a (AlphaLISA, 100 μM SAM and peptide substrate), half-maximal inhibition (IC50) was put at 10.5 nM.

For the compound `Cn1ccnc1-c1ccc(NCC(c2cccnc2)N2CCOCC2)nn1` (stereo not drawn) [A], on G9a (first data set of Table S2), the remaining activity at 0.0001 µM came out at 31%, the remaining activity at 0.001 µM came out at 27.8%, the remaining activity at 0.01 µM came out at 22.9% and the remaining activity at 0.1 µM was 22.8%. In addition, on G9a (first data set of Table S2), the remaining activity at 1 µM worked out at 14.8%, the remaining activity at 10 µM was 10% and the remaining activity at 50 µM was -0.4%. On G9a (second data set of Table S2), the remaining activity at 0.0001 µM turned out to be 32.1%, the remaining activity at 0.001 µM is 30.6%, the remaining activity at 0.01 µM worked out at 30.7% and the remaining activity at 0.1 µM came out at 22.7%. Moreover, at G9a (second data set of Table S2), the remaining activity at 1 µM worked out at 15.1%, the remaining activity at 10 µM was 11.3% and the remaining activity at 50 µM is 0.9%. Further, on G9a (third data set of Table S2), the remaining activity at 0.0001 µM turned out to be 31.6%, the remaining activity at 0.001 µM was determined as 29.2%, the remaining activity at 0.01 µM came out at 26.8% and the remaining activity at 0.1 µM is 22.7%. Further, at G9a (third data set of Table S2), the remaining activity at 1 µM turned out to be 15%, the remaining activity at 10 µM came out at 10.6% and the remaining activity at 50 µM is 0.3%.

Source of the values: publication PMC9401600 (Chemmedchem, 2022).
